Target: T1, Glucocorticoid Receptor (Homo sapiens, UniProt P04150)
T1 construct: expressed in transfected cells
T1 sequence (P04150 524-758 limits assumed): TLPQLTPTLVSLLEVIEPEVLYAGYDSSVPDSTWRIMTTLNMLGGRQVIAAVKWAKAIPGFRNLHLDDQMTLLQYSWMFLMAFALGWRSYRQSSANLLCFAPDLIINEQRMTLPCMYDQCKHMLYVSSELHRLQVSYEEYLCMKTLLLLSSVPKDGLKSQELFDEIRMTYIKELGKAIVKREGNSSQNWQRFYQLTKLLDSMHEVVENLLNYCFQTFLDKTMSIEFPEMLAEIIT
Experiment: Agonistic mode of action on the glucocorticoid receptor (CHO-Gal4/GR luciferase reporter cell line)
Type: cell-based
Details: CHO-Gal4/GR luciferase reporter cells; observed in the agonistic assay or the antagonistic assay (mode not given); read-out: IC50 or EC50 range
Method in brief: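 CHO cells stably expressing GAL4 DBD–GR ligand-binding domain fusion with GAL4-UAS firefly luciferase reporter, seeded 24 h, then treated in Opti-MEM with 8 half-log concentrations from 10 μM to 0.003 μM (0.5% DMSO), quadruplicate. Luminescence read on FLIPR after lysis with Triton/luciferin; EC50 calculated.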

| Structure (SMILES) | IC50 or EC50 (antagonist or agonist mode, not stated per compound) [nM] |
| --- | --- |
| COc1c(-c2cc(C(F)(F)F)cc3[nH]ccc23)cc(F)c2c1-n1c(C)nnc1C(C)(C)N2 [Example 473, 6-Fluoro-9-methoxy-1,4,4-trimethyl-8-[6-(trifluoromethyl)-1H-indol-4-yl]-5H-[1,2,4]triazolo[4,3-a]quinoxaline] | 100 to 1000 |
| CCc1nnc2n1-c1c(C)c(-c3cc(F)cc4c3ccn4S(C)(=O)=O)cc(F)c1NC2(C)C [Example 323, 1-Ethyl-6-fluoro-8-(6-fluoro-1-methylsulfonyl-1H-indol-4-yl)-4,4,9-trimethyl-5H-[1,2,4]triazolo[4,3-a]quinoxaline] | 100 to 1000 |
| Cc1c(-c2cc(F)cc3[nH]ccc23)cc(F)c2c1-n1c(C)nnc1C(C)(C)N2 [Example 465, 6-fluoro-8-(6-fluoro-1H-indol-4-yl)-1,4,4,9-tetramethyl-4,5-dihydro-[1,2,4]triazolo[4,3-a]quinoxaline] | < 100 |
| Cc1c(-c2cccc3c2ccn3CCN(C)C)cc(F)c2c1-n1c(C)nnc1C(C)(C)N2 [Example 375, [2-[4-(6-Fluoro-1,4,4,9-tetramethyl-5H-[1,2,4]triazolo[4,3-a]quinoxalin-8-yl)-1H-indol-1-yl]-ethyl]-dimethyl-amine] | 100 to 1000 |
| COCCn1ccc2c(-c3cc(F)c4c(c3C)-n3c(C)nnc3C(C)(C)N4)cccc21 [Example 300, 6-Fluoro-8-[1-(2-methoxy-ethyl)-1H-indol-4-yl]-1,4,4,9-tetramethyl-5H-[1,2,4]triazolo[4,3-a]quinoxaline] | 100 to 1000 |
| COc1c(-c2cc(F)cc3[nH]ncc23)cc(F)c2c1-n1c(C)nnc1C(C)(C)N2 [Example 495, 6-Fluoro-8-(6-fluoro-1H-indazol-4-yl)-9-methoxy-1,4,4-trimethyl-5H-[1,2,4]triazolo[4,3-a]quinoxaline] | 100 to 1000 |
| COc1c(-c2cccc3c2ccn3C)cc(F)c2c1-n1c(C)nnc1C(C)(C)N2 [Example 485, 6-Fluoro-9-methoxy-1,4,4-trimethyl-8-(1-methyl-1H-indol-4-yl)-5H-[1,2,4]triazolo[4,3-a]quinoxaline] | 100 to 1000 |
| Cc1c(-c2cccc3[nH]ncc23)cc(F)c2c1-n1c(C)nnc1C(C)(C)N2 [Example 504, 6-Fluoro-8-(1H-indazol-4-yl)-1,4,4,9-tetramethyl-5H-[1,2,4]triazolo[4,3-a]quinoxaline] | 100 to 1000 |
| CNc1c(-c2cccc3c2ccn3C2CC2)cc(F)c2c1-n1c(C)nnc1C(C)(C)N2 [Example 481, 8-(1-cyclopropyl-1H-indol-4-yl)-6-fluoro-N,1,4,4-tetramethyl-4,5-dihydro-[1,2,4]triazolo[4,3-a]quinoxalin-9-amine] | 100 to 1000 |
| Cc1c(-c2cccc3c(C)c[nH]c23)c(F)c(F)c2c1-n1c(C)nnc1C(C)(C)N2 [Example 513, 6,7-Difluoro-1,4,4,9-tetramethyl-8-(3-methyl-1H-indol-7-yl)-5H-[1,2,4]triazolo[4,3-a]quinoxaline] | 100 to 1000 |
| Cc1nnc2n1-c1c(C#N)c(-c3cccc4c3ccn4C3CC3)cc(F)c1NC2(C)C [Example 450, 8-(1-cyclopropyl-1H-indol-4-yl)-6-fluoro-1,4,4-trimethyl-4,5-dihydro-[1,2,4]triazolo[4,3-a]quinoxaline-9-carbonitrile] | < 100 |
| Cc1c(-c2cc(F)cc3c2cnn3S(C)(=O)=O)c(F)c(Cl)c2c1-n1c(C)nnc1C(C)(C)N2 [Example 510, 6-Chloro-7-fluoro-8-(6-fluoro-1-methylsulfonyl-1H-indazol-4-yl)-1,4,4,9-tetramethyl-5H-[1,2,4]triazolo[4,3-a]quinoxaline] | < 100 |
| COc1cc(-c2cc(F)c3c(c2OC)-n2c(C)nnc2C(C)(C)N3)c2ccn(S(C)(=O)=O)c2c1 [Example 524, 6-Fluoro-9-methoxy-8-(6-methoxy-1-methylsulfonyl-1H-indol-4-yl)-1,4,4-trimethyl-5H-[1,2,4]triazolo[4,3-a]quinoxaline] | 100 to 1000 |
| Cc1c(-c2cc(F)cc3c2ccn3S(C)(=O)=O)cc(F)c2c1-n1c(C3CC3)nnc1C(C)(C)N2 [Example 63, 1-Cyclopropyl-6-fluoro-8-(6-fluoro-1-methylsulfonyl-1H-indol-4-yl)-4,4,9-trimethyl-5H-[1,2,4]triazolo[4,3-a]quinoxaline] | 100 to 1000 |
| COc1c(-c2cccc3c2ccn3S(C)(=O)=O)c(F)c(F)c2c1-n1c(C)nnc1C(C)(C)N2 [Example 499, 6,7-Difluoro-9-methoxy-1,4,4-trimethyl-8-(1-methylsulfonyl-1H-indol-4-yl)-5H-[1,2,4]triazolo[4,3-a]quinoxaline] | 100 to 1000 |
| Cc1c(-c2cc(F)cc3c(C)c[nH]c23)cc(Cl)c2c1-n1c(C)nnc1C(C)(C)N2 [Example 454, 6-Chloro-8-(5-fluoro-3-methyl-1H-indol-7-yl)-1,4,4,9-tetramethyl-5H-[1,2,4]triazolo[4,3-a]quinoxaline] | < 100 |
| Cc1c(-c2cc(F)cc3c2ccn3CCO)cc(Cl)c2c1-n1c(C)nnc1C(C)(C)N2 [Example 463, 2-[4-(6-Chloro-1,4,4,9-tetramethyl-5H-[1,2,4]triazolo[4,3-a]quinoxalin-8-yl)-6-fluoro-1H-indol-1-yl]-EtOH] | < 100 |
| Cc1nnc2n1-c1c(CO)c(-c3cc(F)cc4c3ccn4S(C)(=O)=O)cc(F)c1NC2(C)C [Example 453, [6-Fluoro-8-(6-fluoro-1-methylsulfonyl-1H-indol-4-yl)-1,4,4-trimethyl-5H-[1,2,4]triazolo[4,3-a]quinoxalin-9-yl]-MeOH] | < 100 |
| Cc1c(-c2cccc3c2cnn3S(C)(=O)=O)cc(Cl)c2c1-n1c(C)nnc1C(C)(C)N2 [Example 458, 6-Chloro-1,4,4,9-tetramethyl-8-(1-methylsulfonyl-1H-indazol-4-yl)-5H-[1,2,4]triazolo[4,3-a]quinoxaline] | 100 to 1000 |
| Cc1nnc2n1-c1c(c(F)cc(-c3cc(F)cc4c3ccn4S(C)(=O)=O)c1C1CC1)NC2(C)C [Example 471, 9-Cyclopropyl-6-fluoro-8-(6-fluoro-1-methylsulfonyl-1H-indol-4-yl)-1,4,4-trimethyl-5H-[1,2,4]triazolo[4,3-a]quinoxaline] | < 100 |
| Cc1c(-c2cc(F)cc3c(C)c[nH]c23)c(F)c(Cl)c2c1-n1c(C)nnc1C(C)(C)N2 [Example 508, 6-Chloro-7-fluoro-8-(5-fluoro-3-methyl-1H-indol-7-yl)-1,4,4,9-tetramethyl-5H-[1,2,4]triazolo[4,3-a]quinoxaline] | 100 to 1000 |
| Cc1c(-c2cccc3c2ccn3CCO)cc(F)c2c1-n1c(C)nnc1C(C)(C)N2 [Example 301, 2-[4-(6-Fluoro-1,4,4,9-tetramethyl-5H-[1,2,4]triazolo[4,3-a]quinoxalin-8-yl)-1H-indol-1-yl]-EtOH] | 100 to 1000 |
| Cc1c(-c2cccc3c2ccn3S(C)(=O)=O)cc(F)c2c1-n1c(C3CC3)nnc1C(C)(C)N2 [Example 64, 1-Cyclopropyl-6-fluoro-4,4,9-trimethyl-8-(1-methylsulfonyl-1H-indol-4-yl)-5H-[1,2,4]triazolo[4,3-a]quinoxaline] | 1000 to 15000 |
| CCS(=O)(=O)n1ccc2c(-c3c(C)c4c(c(F)c3F)NC(C)(C)c3nnc(C)n3-4)cc(F)cc21 [Example 446, 8-(1-(ethylsulfonyl)-6-fluoro-1H-indol-4-yl)-6,7-difluoro-1,4,4,9-tetramethyl-4,5-dihydro-[1,2,4]triazolo[4,3-a]quinoxaline] | < 100 |
| COc1c(-c2ccc(F)c3[nH]ncc23)cc(F)c2c1-n1c(C)nnc1C(C)(C)N2 [Example 489, 6-Fluoro-8-(7-fluoro-1H-indazol-4-yl)-9-methoxy-1,4,4-trimethyl-5H-[1,2,4]triazolo[4,3-a]quinoxaline] | 100 to 1000 |
| COc1c(-c2cc(F)cc3c2ccn3S(C)(=O)=O)cc(Cl)c2c1-n1c(C)nnc1C(C)(C)N2 [Example 483, 6-chloro-8-(6-fluoro-1-(methylsulfonyl)-1H-indol-4-yl)-9-methoxy-1,4,4-trimethyl-4,5-dihydro-[1,2,4]triazolo[4,3-a]quinoxaline] | < 100 |
| COc1c(-c2cc(F)cc3[nH]ccc23)cc(F)c2c1-n1c(C)nnc1C(C)(C)N2 [Example 470, 6-Fluoro-8-(6-fluoro-1H-indol-4-yl)-9-methoxy-1,4,4-trimethyl-5H-[1,2,4]triazolo[4,3-a]quinoxaline] | 100 to 1000 |
| Cc1c(-c2cccc3c(C)n[nH]c23)cc(F)c2c1-n1c(C)nnc1C(C)(C)N2 [Example 352, 6-Fluoro-1,4,4,9-tetramethyl-8-(3-methyl-1H-indazol-7-yl)-5H-[1,2,4]triazolo[4,3-a]quinoxaline] | 100 to 1000 |
| Cc1c(-c2cccc3c2ccn3S(=O)(=O)CF)cc(F)c2c1-n1c(C)nnc1C(C)(C)N2 [Example 349, 6-Fluoro-8-[1-(fluoro-methylsulfonyl)-1H-indol-4-yl]-1,4,4,9-tetramethyl-5H-[1,2,4]triazolo[4,3-a]quinoxaline] | 100 to 1000 |

— patent US11981677B2, “Further substituted triazolo quinoxaline derivatives” (Grünenthal GmbH, priority 2018, dated 2024)
